Reference: US11964949B2, “Substituted phenyloxazolidinones for antimicrobial therapy” (priority 2015, dated 2024)
Converted amounts (≈) assume the structure as drawn. Read-outs that look alike come from different tables or passages of the source.

Tests used:
tuberculosis = conditions: cited from earlier work
[1] = test system: mitochondrial protein synthesis (MPS) in H9C2 cells; assay: In vitro assay for MPS inhibition (COX-1 / SDH-A ELISA in H9C2 cells); assay type: cell-based, rat; conditions: read-out: IC50 (μM) MPS inhibition
[2] = test system: Mycobacterium tuberculosis H37Rv; assay: In vitro assay for antimicrobial susceptibility (microplate Alamar blue, MIC); assay type: cell-based; conditions: for MIC: Mycobacterium tuberculosis, read-out: MIC (μg/mL) against H37Rv
[3] = Rattus norvegicus, 120 h, H9C2 cells, 5 days incubation
[4] = M. tuberculosis H37Rv, 7H9 broth, Alamar blue

Q: For `CC(=O)NC[C@H]1CN(c2ccc(N3CCOCC3)c(F)c2)C(=O)O1` [Linezolid], which “activity in murine models of tuberculosis” value (tuberculosis) is on record?
A: only modest activity

Q: With `CC(=O)NC[C@H]1CN(c2cc(F)c(N3CCCSCC3)c(F)c2)C(=O)O1` [OTB-407, (S)—N-((3-(3,5-Difluoro-4-(1,4-thiazepan-4-yl)phenyl)-2-oxo-oxazolidin-5-yl)methyl)acetamide] as the molecule, how does the IC50 [1, 3] read?
A: 3.08 µM

Q: What about the MIC [2, 4] of the same molecule?
A: 0.097 µg/mL (≈ 0.252 µM)

Q: For `O=C(NC[C@H]1CN(c2cc(F)c(N3CCCSCC3)c(F)c2)C(=O)O1)C1CC1` [OTB-408], which IC50 [1, 3] is on record?
A: 3.61 µM

Q: And the MIC [2, 4]?
A: 0.342 µg/mL (≈ 0.831 µM)

Q: With `O=C(NC[C@H]1CN(c2cc(F)c(N3CCCSCC3)c(F)c2)C(=O)O1)C1CCC1` [OTB-409] as the molecule, how does the IC50 [1, 3] read?
A: 8.51 µM

Q: And the MIC [2, 4]?
A: 0.477 µg/mL (≈ 1.12 µM)

Q: What does the source list for `COC(=O)NC[C@H]1CN(c2cc(F)c(N3CCCSCC3)c(F)c2)C(=O)O1` [OTB-410, Methyl (S)-((3-(3,5-difluoro-4-(1,4-thiazepan-4-yl)phenyl)-2-oxo-oxazolidin-5-yl)methyl)carbamate]?
A: IC50 [1, 3]: > 100 µM; MIC [2, 4]: 0.125 µg/mL (≈ 0.311 µM)

Q: Which IC50 [1, 3] does the source give for `O=C1O[C@@H](Cn2ccnn2)CN1c1cc(F)c(N2CCCSCC2)c(F)c1` [OTB-411, (R)-5-((1H-1,2,3-triazol-1-yl)methyl)-3-(3,5-difluoro-4-(1,4-thiazepan-4-yl)phenyl)oxazolidin-2-one] here?
A: 8.73 µM

Q: What about the MIC [2, 4] of the same molecule?
A: 0.124 µg/mL (≈ 0.314 µM)

Q: Which IC50 [1, 3] does the source give for `COC(=O)NC[C@H]1CN(c2ccc(N3CCCSCC3)c(F)c2)C(=O)O1` [OTB-412, Methyl (S)-((3-(3-fluoro-4-(1,4-thiazepan-4-yl)phenyl)-2-oxo-oxazolidin-5-yl)methyl) carbamate] here?
A: 10 µM

Q: What about the MIC [2, 4] of the same molecule?
A: 0.199 µg/mL (≈ 0.519 µM)

Q: With `O=C(NC[C@H]1CN(c2ccc(N3CCCSCC3)c(F)c2)C(=O)O1)C1CC1` [OTB-413, (S)—N-((3-(3-Fluoro-4-(1,4-thiazepan-4-yl)phenyl)-2-oxo-oxazolidin-5-yl)methyl)cyclopropanecarboxamide] as the molecule, how does the IC50 [1, 3] read?
A: 9.13 µM

Q: And the MIC [2, 4]?
A: 0.108 µg/mL (≈ 0.274 µM)

Q: For `CC(=O)NC[C@H]1CN(c2ccc(N3[C@@H]4CC[C@H]3CSC4)c(F)c2)C(=O)O1` [OTB-502, N—(((S)-3-(4-((1R,5S)-3-Thia-8-azabicyclo[3.2.1]octan-8-yl)-3-fluorophenyl)-2-oxooxazolidin-5-yl)methyl)acetamide], which IC50 ([1]; Rattus norvegicus, H9c2, 120 h) is on record?
A: 13.6 µM

Q: What about the MIC ([2]; H37RV) of the same molecule?
A: 0.246 µg/mL (≈ 0.648 µM)

Q: Which results are given for `O=C(NC[C@H]1CN(c2ccc(N3[C@@H]4CC[C@H]3CSC4)c(F)c2)C(=O)O1)C1CC1` [OTB-506, N—(((S)-3-(4-((1R,5S)-3-Thia-8-azabicyclo[3.2.1]octan-8-yl)-3-fluorophenyl)-2-oxo-oxazolidin-5-yl)methyl)cyclopropanecarboxamide]?
A: IC50 ([1]; Rattus norvegicus, H9c2, 120 h): 8 µM; MIC ([2]; H37RV): 1 µg/mL (≈ 2.47 µM)

Q: With `O=C(NC[C@H]1CN(c2ccc(N3[C@@H]4CC[C@H]3CSC4)c(F)c2)C(=O)O1)C1CCC1` [OTB-507, N—(((S)-3-(4-((1R,5S)-3-Thia-8-aza-bicyclo[3.2.1]octan-8-yl)-3-fluorophenyl)-2-oxo-oxazolidin-5-yl)methyl)cyclobutanecarboxamide] as the molecule, how does the IC50 ([1]; Rattus norvegicus, H9c2, 120 h) read?
A: 10 µM

Q: And the MIC ([2]; H37RV)?
A: 0.7 µg/mL (≈ 1.67 µM)

Q: For `O=C(NC[C@H]1CN(c2cc(F)c(N3[C@@H]4CC[C@H]3CSC4)c(F)c2)C(=O)O1)C1CC1` [OTB-508, N—(((S)-3-(4-((1R,5S)-3-Thia-8-aza-bicyclo[3.2.1]octan-8-yl)-3,5-difluorophenyl)-2-oxo-oxazolidin-5-yl)methyl)cyclopropanecarboxamide], which IC50 ([1]; Rattus norvegicus, H9c2, 120 h) is on record?
A: 8 µM

Q: And the MIC ([2]; H37RV)?
A: 0.2 µg/mL (≈ 0.472 µM)

Q: With `O=C(NC[C@H]1CN(c2cc(F)c(N3[C@@H]4CC[C@H]3CSC4)c(F)c2)C(=O)O1)C1CCC1` [OTB-509, N—(((S)-3-(4-((1R,5S)-3-Thia-8-aza-bicyclo[3.2.1]octan-8-yl)-3,5-difluorophenyl)-2-oxo-oxazolidin-5-yl)methyl)cyclobutanecarboxamide] as the molecule, how does the IC50 ([1]; Rattus norvegicus, H9c2, 120 h) read?
A: 5 µM

Q: What about the MIC ([2]; H37RV) of the same molecule?
A: 0.04 µg/mL (≈ 0.0914 µM)

Q: For `CC(=O)NC[C@H]1CN(c2cc(F)c(N3[C@@H]4CC[C@H]3CSC4)c(F)c2)C(=O)O1` [OTB-510, N—(((S)-3-(4-((1R,5S)-3-Thia-8-aza-bicyclo[3.2.1]octan-8-yl)-3,5-difluorophenyl)-2-oxo-oxazolidin-5-yl)methyl)acetamide], which IC50 ([1]; Rattus norvegicus, H9c2, 120 h) is on record?
A: 3 to 7 µM

Q: What about the MIC ([2]; H37RV) of the same molecule?
A: 0.03 to 0.22 µg/mL (≈ 0.0755 to 0.554 µM)

Q: For `COC(=O)NC[C@H]1CN(c2cc(F)c(N3[C@@H]4CC[C@H]3CSC4)c(F)c2)C(=O)O1` [OTB-512, Methyl (((S)-3-(4-((1R,5S)-3-thia-8-azabicyclo[3.2.1]octan-8-yl)-3,5-difluorophenyl)-2-oxo-oxazolidin-5-yl)methyl)carbamate], which IC50 ([1]; Rattus norvegicus, H9c2, 120 h) is on record?
A: 42.5 µM

Q: And the MIC ([2]; H37RV)?
A: 0.063 µg/mL (≈ 0.152 µM)

Q: Which IC50 ([1]; Rattus norvegicus, H9c2, 120 h) does the source give for `O=C(NC[C@H]1CN(c2cc(F)c(N3[C@@H]4CC[C@H]3C[S+]([O-])C4)c(F)c2)C(=O)O1)C1CCC1` (stereo partly drawn) [OTB-513, N-(((5S)-3-(3,5-Difluoro-4-((1R,5S)-3-oxido-3-thia-8-azabicyclo[3.2.1]octan-8-yl)phenyl)-2-oxo-oxazolidin-5-yl)methyl)cyclobutanecarboxamide] here?
A: 13 µM

Q: And the MIC ([2]; H37RV)?
A: 1.66 µg/mL (≈ 3.67 µM)

Q: With `CC(=O)NC[C@H]1CN(c2cc(F)c(N3[C@@H]4CC[C@H]3C[S+]([O-])C4)c(F)c2)C(=O)O1` (stereo partly drawn) [OTB-514, N-(((5S)-3-(3,5-Difluoro-4-((1R,5S)-3-oxido-3-thia-8-azabicyclo[3.2.1]octan-8-yl)phenyl)-2-oxo-oxazolidin-5-yl)methyl) acetamide] as the molecule, how does the IC50 ([1]; Rattus norvegicus, H9c2, 120 h) read?
A: 25 µM

Q: And the MIC ([2]; H37RV)?
A: 0.5 µg/mL (≈ 1.21 µM)

Q: For `O=C1O[C@@H](CO)CN1c1cc(F)c(N2CC3(CSC3)C2)c(F)c1` [OTB-516, (R)-3-(3,5-Difluoro-4-(2-thia-6-azaspiro[3.3]heptan-6-yl)phenyl)-5-(hydroxymethyl) oxazolidin-2-one], which IC50 [1, 3] is on record?
A: 15.3 µM

Q: And the MIC [2, 4]?
A: 0.465 µg/mL (≈ 1.36 µM)

Q: Which IC50 [1, 3] does the source give for `CS(=O)(=O)NC[C@H]1CN(c2cc(F)c(N3CC4(CSC4)C3)c(F)c2)C(=O)O1` [OTB-516-2A] here?
A: > 100 µM

Q: And the MIC [2, 4]?
A: 0.05 µg/mL (≈ 0.119 µM)

Q: For `CS(=O)(=O)NC[C@H]1CN(c2cc(F)c(N3CC4(C3)C[S+]([O-])C4)c(F)c2)C(=O)O1` [OTB-516-2B], which IC50 [1, 3] is on record?
A: > 100 µM

Q: And the MIC [2, 4]?
A: 3 µg/mL (≈ 6.89 µM)

Q: With `CNC(=O)OC[C@H]1CN(c2cc(F)c(N3CC4(CSC4)C3)c(F)c2)C(=O)O1` [OTB-516-4A] as the molecule, how does the IC50 [1, 3] read?
A: > 100 µM

Q: What about the MIC ([2]; H37RV) of the same molecule?
A: 0.03 µg/mL (≈ 0.0751 µM)

Q: With `CNC(=O)OC[C@H]1CN(c2cc(F)c(N3CC4(C3)C[S+]([O-])C4)c(F)c2)C(=O)O1` [OTB-516-4B] as the molecule, how does the IC50 [1, 3] read?
A: > 100 µM

Q: And the MIC ([2]; H37RV)?
A: 4.7 µg/mL (≈ 11.3 µM)

Q: Which IC50 ([1]; Rattus norvegicus, H9c2, 120 h) does the source give for `O=C1O[C@@H](Cn2ccnn2)CN1c1cc(F)c(N2C3CCC2C[S+]([O-])C3)c(F)c1` (stereo partly drawn) [OTB-517] here?
A: 30 to 55 µM

Q: And the MIC ([2]; H37RV)?
A: 1.3 to 2 µg/mL (≈ 3.07 to 4.72 µM)

Q: For `COC(=O)NC[C@H]1CN(c2ccc(N3C4CCC3C[S+]([O-])C4)c(F)c2)C(=O)O1` (stereo partly drawn) [OTB-518], which IC50 ([1]; Rattus norvegicus, H9c2, 120 h) is on record?
A: 73 µM

Q: What about the MIC ([2]; H37RV) of the same molecule?
A: 3.5 µg/mL (≈ 8.51 µM)

Q: With `COC(=O)NC[C@H]1CN(c2cc(F)c(N3C4CCC3C[S+]([O-])C4)c(F)c2)C(=O)O1` (stereo partly drawn) [OTB-519] as the molecule, how does the IC50 ([1]; Rattus norvegicus, H9c2, 120 h) read?
A: 51 µM

Q: What about the MIC ([2]; H37RV) of the same molecule?
A: 0.9 µg/mL (≈ 2.1 µM)

Q: With `CC(=O)NC[C@H]1CN(c2cc(F)c(N3CC4(C3)C[S+]([O-])C4)c(F)c2)C(=O)O1` [OTB-520] as the molecule, how does the IC50 [1, 3] read?
A: 17 µM

Q: And the MIC [2, 4]?
A: 0.4 µg/mL (≈ 1 µM)

Q: For `O=C1O[C@@H](Cn2ccnn2)CN1c1cc(F)c(N2CC3(C2)C[S+]([O-])C3)c(F)c1` [OTB-522], which IC50 [1, 3] is on record?
A: 38 µM

Q: And the MIC [2, 4]?
A: 1 µg/mL (≈ 2.44 µM)

Q: Which results are given for `CC(=O)NC[C@H]1CN(c2ccc(N3CC4(C3)C[S+]([O-])C4)c(F)c2)C(=O)O1` [OTB-523]?
A: IC50 [1, 3]: 4 µM; MIC [2, 4]: 0.5 µg/mL (≈ 1.31 µM)

Q: With “(R)-5-((2H-1,2,3-Triazol-2-yl)methyl)-3-(3-fluoro-4-(2-oxa-6-azaspiro[3.3]heptan-6-yl)phenyl)oxazolidin-2-one [OTB-204]” as the molecule, how does the IC50 ([1]; H9C2 cells, 5 days incubation) read?
A: > 100 µM

Q: And the “MIC (μg/mL) against H37Rv” value [2, 4]?
A: 3.2 to 3.7 µg/mL
